Measured values taken from patent US12605362B2, “Eletriptan hydrobromide for treatment of spinal cord injury and improvement of locomotor function” (TECHNOPHAGE, INVESTIGAÇÃO E DESENVOLVIMENTO EM …, priority 2020, dated 2026).
Counter-ions that a name gives are not always drawn.

Assays:
[1] = system: mice with T9 contusion type of injury; assay: fibrotic scar quantification (PDGFRβ / GFAP immunohistochemistry); format: in vivo; conditions: 42 dpi, vs Vehicle
Method: (§1) A moderate-severe contusion-type of injury was performed on adult C57BL/6 female mice (10-12 weeks) with an Infinite Horizon Impactor (PSI)^30. All surgeries were performed under aseptic conditions. Briefly, under deep anesthesia with Ketamine and Xylazine (120 mg/kg and 16 mg/kg respectively, i.p.) mice received a dorsal laminectomy at the level of 9th thoracic vertebra (T9). After securing the lateral processes of the 8th thoracic vertebra (T8) and 10th thoracic vertebra (T10) with a stainless-steel impactor tip, a controlled force-defined impact at 75 kdyne was delivered to the exposed spinal cord^28,30. Then, muscle and skin were closed with 4.0 polyglycolic acid (PGA) absorbable sutures (Safil, G1048213). In this study, mice were excluded when the actual displacement value was outside the interval 500-700 μm or if the actual force after impact was >2SD 75 Kdyne. Immediately after injury, mice were injected subcutaneously with 0.5 ml of sterile saline and then daily for 5 days. […] Weight was monitored daily until 15 days-post-injury (dpi) and then weekly for the duration of the study and a high caloric pellet (Supreme Mini-Treats™ S05478 and S05472) was provided as a dietary supplement since a 10% weight loss was typically observed in this SCI model upon injury. […]
(§2) For immunohistochemistry in sections, OCT was removed from the cryosections using PBS (30 minutes). […] For activated microglia quantification, sections were counterstained with DAPI. […]
One set of sections was stained with anti-PDGFRβ and anti-GFAP to outline the border of the fibrotic scar area. Z-stack compositions were acquired in a motorized inverted widefield fluorescence microscope (Zeiss Cell Observer, Carl Zeiss MicroImaging) with 20× magnification. Fiji software was used to manually outline and calculate the PDGFRβ^+ area and total cross-sectional area to thereafter quantify the percentage of fibrotic scar area per total cross-sectional area. The rostral and caudal extents of fibrotic lesion were determined by inspection. […]

[2] = molecular target: T1, 5-HTIF (Homo sapiens, UniProt P30939); conditions: serotonin receptor agonist; cited from earlier work
T1 sequence (P30939 1-366): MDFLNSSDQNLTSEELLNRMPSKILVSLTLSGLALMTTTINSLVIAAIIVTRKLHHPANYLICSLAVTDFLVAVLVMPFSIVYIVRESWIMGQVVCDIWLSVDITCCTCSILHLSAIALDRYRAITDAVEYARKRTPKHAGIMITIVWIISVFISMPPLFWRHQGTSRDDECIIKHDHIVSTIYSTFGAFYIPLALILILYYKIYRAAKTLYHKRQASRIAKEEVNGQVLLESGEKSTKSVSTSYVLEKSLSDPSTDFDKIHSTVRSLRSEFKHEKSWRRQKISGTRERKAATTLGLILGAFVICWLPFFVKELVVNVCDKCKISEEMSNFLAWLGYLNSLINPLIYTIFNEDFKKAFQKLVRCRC

[3] = system: mice with T9 contusion type of injury; assay: bladder function score during manual bladder expression after T9 contusion SCI; format: in vivo; conditions: vs Vehicle
Method: as §1
Additionally, we also evaluated the bladder dysfunction status, which is a common effect seen after a SCI^3,37. […]

[4] = system: mice with T9 contusion type of injury; assay: FluoroMyelin Green staining and white matter sparing analysis; format: in vivo; conditions: 42 dpi; at lesion epicentre and over 700 μm rostrally and caudally, vs Vehicle
Method: as §1, with “G1048213).” for “G1048213). In this study, mice were excluded when the actual displacement value was outside the interval 500-700 μm or if the actual force after impact was >2SD 75 Kdyne. Immediately after injury, mice were injected subcutaneously with 0.5 ml of sterile saline and then daily for 5 days.”
To quantify demyelination, one set of sections spaced 100 μm apart and spanning the entire block was stained with FluoroMyelin™ Green (ThermoFisher Scientific, F34651) for 1 hour. Z-stack compositions were acquired in a motorized inverted widefield fluorescence microscope (Zeiss Cell Observer, Carl Zeiss MicroImaging) with 10× magnification. […]

[5] = system: mice with T9 contusion type of injury; assay: activated microglia quantification and morphology (P2Y12 / F4/80 immunohistochemistry); format: in vivo; conditions: 42 dpi; for number of P2Y12+ F4/80+ (activated microglia) cells: vs Vehicle
Method: A moderate-severe contusion-type of injury was performed on adult C57BL/6 female mice (10-12 weeks) with an Infinite Horizon Impactor (PSI)^30. All surgeries were performed under aseptic conditions. Briefly, under deep anesthesia with Ketamine and Xylazine (120 mg/kg and 16 mg/kg respectively, i.p.) mice received a dorsal laminectomy at the level of 9th thoracic vertebra (T9). After securing the lateral processes of the 8th thoracic vertebra (T8) and 10th thoracic vertebra (T10) with a stainless-steel impactor tip, a controlled force-defined impact at 75 kdyne was delivered to the exposed spinal cord^28,30. Then, muscle and skin were closed with 4.0 polyglycolic acid (PGA) absorbable sutures (Safil, G1048213). In this study, mice were excluded when the actual displacement value was outside the interval 500-700 μm or if the actual force after impact was >2SD 75 Kdyne. Immediately after injury, mice were injected subcutaneously with 0.5 ml of sterile saline and then daily for 5 days. During this experiment, mice underwent gentle bladder expression twice daily until they were voiding on their own. Weight was monitored daily until 15 days-post-injury (dpi) and then weekly for the duration of the study and a high caloric pellet (Supreme Mini-Treats™ S05478 and S05472) was provided as a dietary supplement since a 10% weight loss was typically observed in this SCI model upon injury. […]
as §2
To quantify the activated microglia one set of spinal cord sections were stained with anti-P2Y12 (a microglia specific marker) and anti-F4/80 (a pan macrophage marker) and counterstained with […] DAPI. Z-stack compositions were acquired in a motorized inverted widefield fluorescence microscope (Zeiss Cell Observer, Carl Zeiss MicroImaging) with 20× magnification. […]

Structure (SMILES): CN1CCC[C@@H]1Cc1c[nH]c2ccc(CCS(=O)(=O)c3ccccc3)cc12 [Eletriptan Hbr, Eletriptan Hydrobromide]
- extension of PDGFRβ+ lesion core [1]: no statistically significant differences
- extension of increased levels of PDGFRβ+ immunostaining [1]: statistically significant reduction
- area of fibrotic lesion core ([1]; at lesion epicentre): no statistically significant differences
- affinity [2]: high affinity
- volumes of retained urine (bladder score 0 to 3) ([3]; 1 dpi): statistically significant smaller volumes of retained urine
- volumes of retained urine (bladder score 0 to 3) ([3]; after 1 dpi until the end of the study): no differences between experimental groups
- spared white matter per total cross-sectional area [4]: not significantly but consistently higher
- number of P2Y12+ F4/80+ (activated microglia) cells [5]: no statistically significant differences
- number of P2Y12+ F4/80+ (activated microglia) cells ([5]; at 400 μm rostrally and caudally to the epicentre): consistently higher
- P2Y12+ microglia morphology ([5]; sections near or at the epicentre, feature not observed in Vehicle-treated mice): longer, ramified processes were also observed
